Several values for one entry are separate records, joined by “and”; a condition that tells them apart may be missing. Equal entries are not always repeated.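 Cultured in 96-well plates, cells were exposed to test compound for 48 hours across five concentrations. GI50 marks 50% less growth. The concentration for full growth arrest is given as TGI.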
Tests used:
Assay in all cases: NCI anticancer screen, dose series, 48 h
[1] = system: SNB-19 CNS
[2] = system: KM12 colon
[3] = system: DU-145 prostate
[4] = system: UACC-62 melanoma
[5] = system: EKVX NSCLC
[6] = system: A549 NSCLC
[7] = system: MOLT-4 leukemia
[8] = system: SF-295 CNS
[9] = system: SW-620 colon
[10] = system: RXF 393 renal
[11] = system: HCC-2998 colon
[12] = system: MDA-MB-435
[13] = system: SK-MEL-5 melanoma
[14] = system: SF-539 CNS
[15] = system: CCRF-CEM leukemia
[16] = system: HCT-15 colon
[17] = system: MCF7 breast

SMILES | TGI [1] | TGI [2] | TGI [3] | TGI [4] | TGI [5] | TGI [6] | TGI [7] | TGI [8] | TGI [9] | TGI [10] | TGI [11] | TGI [12] | TGI [13] | TGI [14] | TGI [15] | TGI [16] | TGI [17] | GI50 [7] | GI50 [11] | GI50 [15]
O/N=C(/C(Cl)=C(Cl)Cl)C(Cl)Cl | > 100 µM | 47.4 µM | 97.4 µM | 77.2 µM | > 100 µM | > 100 µM | 37.1 µM | 35.8 µM | 38.8 µM | 30.5 µM | 79.6 µM | 33.1 µM | 40.3 µM | 44.9 µM | 36.7 µM | 33.5 µM | 60.7 µM | – | – | –
COC(=O)CCC1=NCC(C)(C)O1 | > 10 µM | > 10 µM | > 10 µM | > 10 µM | > 10 µM | > 10 µM | > 10 µM | > 10 µM | > 10 µM | > 10 µM | > 10 µM | > 10 µM | > 10 µM | > 10 µM | > 10 µM | > 10 µM | > 10 µM | – | – | –
O=C1C2=Cc3ccccc3OC2(O)Oc2ccccc21 (stereo unspecified) | – | > 100 µM | > 100 µM | > 100 µM | > 100 µM | > 100 µM | > 100 µM | > 100 µM | > 100 µM | > 100 µM | > 100 µM | > 100 µM | > 100 µM | > 100 µM | > 100 µM | > 100 µM | > 100 µM | – | – | –
COc1cc2cc(C(=O)N3CC(CCl)c4ccc([N+](C)(C)Cc5ccc([N+](=O)[O-])cc5)cc43)[nH]c2c(OC)c1OC (stereo unspecified) | 60 µM | 5.46 µM | 10.8 µM | 4.69 µM | 29.3 µM | > 100 µM | 6.44 µM | 15.3 µM | 6.18 µM | 3.09 µM | 2.95 µM | 24 µM | 3.31 µM | 5.64 µM | 7.01 µM | 31 µM | > 100 µM | – | – | –
CNCCN[C@@H]1c2cc3c(cc2[C@@H](c2cc(OC)c(O)c(OC)c2)[C@H]2C(=O)OC[C@@H]21)OCO3 | 11.9 µM | 4.47 µM | 1.57 µM | 0.831 µM | 22.7 µM | – | 0.0587 µM | 1.07 µM | > 100 µM | 0.747 µM | 3.79 µM | 6.32 µM | 1.16 µM | 0.167 µM | 0.117 µM | 98.7 µM | > 53.3 µM | – | – | –
O/N=C1\CC2(N3CCOCC3)CCC1(c1ccccc1)CC2 | > 100 µM | > 100 µM | > 100 µM | > 100 µM | > 100 µM | > 100 µM | > 100 µM | > 100 µM | > 100 µM | > 100 µM | > 100 µM | > 100 µM | > 100 µM | > 100 µM | > 100 µM | > 100 µM | > 100 µM | – | – | –
CC(=O)c1c(SCCN2CCOCC2)n(-c2ccccc2)c(=S)n(-c2ccccc2)c1=O | > 55.2 µM | > 54.8 µM | 22.7 µM | 29.5 µM | > 76.3 µM | > 57.6 µM | > 62.9 µM | > 100 µM | 49.9 µM | 25.7 µM | 28.5 µM | 33.6 µM | 34.4 µM | 43.9 µM | 32.5 µM | 48.6 µM | 5.31 µM | – | – | –
C=C(Cl)/C(=C\Cl)CCC(Cl)C(C)C (stereo unspecified) | > 100 µM | > 100 µM | > 100 µM | > 100 µM | > 100 µM | > 100 µM | > 100 µM | > 100 µM | > 100 µM | > 100 µM | > 100 µM | > 100 µM | > 100 µM | > 100 µM | > 100 µM | – | > 100 µM | – | – | –
Cc1ccc(/C=C2/N=C(N/N=C\C(O)C(O)C(O)CO)NC2=O)cc1 (stereo unspecified) | > 100 µM | > 100 µM | > 100 µM | – | > 100 µM | > 100 µM | > 100 µM | > 100 µM | > 100 µM | > 100 µM | > 100 µM | > 100 µM | > 100 µM | > 100 µM | > 100 µM | > 100 µM | > 100 µM | 46.2 µM | > 100 µM and 30.9 µM | 51.5 µM
COc1cccc2c1C1(O)C2CCCCCCCCCC12OCCCO2 (stereo unspecified) | > 100 µM | > 100 µM | > 100 µM | > 100 µM | – | > 100 µM | > 100 µM | > 86.9 µM | > 100 µM | > 100 µM | > 100 µM | > 100 µM | > 100 µM | > 100 µM | > 92.4 µM | > 100 µM | > 100 µM | – | – | –
C=C1[C@H]2O[C@H]2[C@@H](OC(C)=O)[C@@]2(C)[C@@H](OC(C)=O)C[C@@H](OC(=O)CCC)[C@@](C)(O)[C@@H]2[C@@H](OC(C)=O)[C@]2(O)[C@@H](C)C(=O)O[C@H]2[C@H]1Cl | > 100 µM | > 100 µM | > 100 µM | > 100 µM | > 100 µM | > 100 µM | > 100 µM | > 100 µM | > 100 µM | > 100 µM | > 100 µM | > 100 µM | > 100 µM | > 100 µM | – | > 100 µM | > 100 µM | – | – | –
Cc1c[nH]c(C(=O)O)c1-c1cccn1-c1ccc(Cl)cc1[N+](=O)[O-] | – | > 100 µM | > 100 µM | > 100 µM | > 100 µM | > 100 µM | > 100 µM | > 100 µM | > 100 µM | > 100 µM | > 100 µM | > 100 µM | > 100 µM | > 100 µM | > 100 µM | > 100 µM | > 100 µM | – | – | –
Cn1nc2ccc([N+](=O)[O-])cc2[n+]1[O-] | > 100 µM | > 100 µM | > 100 µM | > 100 µM | > 100 µM | > 100 µM | > 100 µM | > 100 µM | – | > 100 µM | > 100 µM | > 100 µM | > 100 µM | > 100 µM | > 100 µM | > 100 µM | > 100 µM | – | – | –
